Key:
Test in all cases: Cell proliferation assay (MTS)
Assay type in all cases: cell-based, human
CAPAN2 = tested on: CAPAN2
Experimental: (§1) The sensitivity of a panel of human cancer cell lines to the effects of compounds was determined in a standard proliferation assay.
(§2) Cells were plated in 96 well plates at densities of 1000-6000 cells per well in RPMI media containing 10% FBS. After incubation at 37° C. for 16 hours, various concentrations of compound were added to the assay plates. After incubation for an additional 72 h, the viable cells were determined by the addition of MTS reagent (Promega #3582) to each well for 2 h. […] The formazan product was then quantitated by absorbance at 490 nm, as an indicator of the relative number of live cells. In order to determine the GI50 (concentration at which growth of cells was inhibited by 50%) the relative number of cells present at the time of drug addition was determined by comparison with the MTS readout before the drug was added, and this value was subtracted from the 72 hr value of untreated cells as a measure of cell growth during the assay.

LUDLU1 = tested on: LUDLU1
Experimental: as §1, §2

MDAMB231 = tested on: MDAMB231
Experimental: as §1, §2

SNU620 = tested on: SNU620
Experimental: (§3) The sensitivity of a panel of human cancer cell lines to the effects of compounds was determined in a standard proliferation assay. Cell lines were sourced through the AstraZeneca Cell Bank.
(§4) Cells were plated in 96 well plates at densities of 1000-6000 cells per well in RPMI media containing 10% FBS. After incubation at 37° C. for 16 hours, various concentrations of compound were added to the assay plates. After incubation for an additional 72 h, the viable cells were determined by the addition of MTS reagent (Promega #3582) to each well for 2 h. MTS is a tetrazolium salt that is bioreduced by metabolically active cells in the presence of an electron coupling reagent to formazan. The formazan product was then quantitated by absorbance at 490 nm, as an indicator of the relative number of live cells. In order to determine the GI50 (concentration at which growth of cells was inhibited by 50%) the relative number of cells present at the time of drug addition was determined by comparison with the MTS readout before the drug was added, and this value was subtracted from the 72 hr value of untreated cells as a measure of cell growth during the assay.

SNU601 = tested on: SNU601
Experimental: as §3, §4

SNU638 = tested on: SNU638
Experimental: as §3, §4

RKO = tested on: RKO
Experimental: as §1, §4

A2058 = tested on: A2058
Experimental: as §1, §4

T47D = tested on: T47D
Experimental: as §1, §4

HCCC9810 = tested on: HCCC9810
Experimental: as §1, §4

SNU1 = tested on: SNU1
Experimental: as §3, §4

KATOIII = tested on: KATOIII
Experimental: as §1, §2

JJN3 = tested on: JJN3
Experimental: as §1, §4

HCC1395 = tested on: HCC1395
Experimental: as §1, §2

ASPC1 = tested on: ASPC1
Experimental: as §1, §4

H322 = tested on: H322
Experimental: as §1, §2

SKCO1 = tested on: SKCO1
Experimental: as §1, §2

RPM18226 = tested on: RPM18226
Experimental: as §1, §2

OCILY19 = tested on: OCILY19
Experimental: as §1, §4

COLO205 = tested on: COLO205
Experimental: as §1, §2

HARA = tested on: HARA
Experimental: as §1, §4

977 = tested on: 977
Experimental: as §1, §4

HUH7 = tested on: HUH7
Experimental: as §1, §4

TCCSUP = tested on: TCCSUP
Experimental: as §1, §4

H522 = tested on: H522
Experimental: as §1, §2

DMS114 = tested on: DMS114
Experimental: as §3, §4

SW1710 = tested on: SW1710
Experimental: as §1, §2

HPAFII = tested on: HPAFII
Experimental: as §1, §4

YAPC = tested on: YAPC
Experimental: as §3, §4

HCA7 = tested on: HCA7
Experimental: as §1, §2

HS766T = tested on: HS766T
Experimental: as §3, §4

H526 = tested on: H526
Experimental: as §1, §4

CAPAN1 = tested on: CAPAN1
Experimental: as §1, §4

KU1919 = tested on: KU1919
Experimental: as §1, §4

OCUM1 = tested on: OCUM1
Experimental: as §3, §4

HT29 = tested on: HT29
Experimental: as §1, §2

MONOMAC6 = tested on: MONOMAC6
Experimental: as §1, §4

H226 = tested on: H226
Experimental: as §1, §4

H2126 = tested on: H2126
Experimental: as §3, §4

H23 = tested on: H23
Experimental: as §3, §4

PANC0327 = tested on: PANC0327
Experimental: as §3, §4

SCABER = tested on: SCABER
Experimental: as §3, §4

LNCAPCLONEFGC = tested on: LNCAPCLONEFGC
Experimental: as §3, §4

[1] = Homo sapiens, Stomach, PIK3CA WT
[2] = Homo sapiens, Pancreas, PIK3CA WT
[3] = Homo sapiens, Bladder, PIK3CA WT

SMILES: CCn1nc(C2CCN(C(=O)CCO)CC2)nc1-c1cnc(N)c(-c2nnc(C(C)(C)C)o2)n1 [Example 3, 1-(4-(5-(5-amino-6-(5-tert-butyl-1,3,4-oxadiazol-2-yl)pyrazin-2-yl)-1-ethyl-1H-1,2,4-triazol-3-yl)piperidin-1-yl)-3-hydroxypropan-1-one]
- Category (CAPAN2): Resistant (resistant (GI50>1.0 μM))
- GI50 (CAPAN2; Homo sapiens, Capan-2, Pancreas, PIK3CA WT): 13.4 µM
- Category (LUDLU1): Resistant (resistant (GI50>1.0 μM))
- GI50 (LUDLU1; Homo sapiens, LUDLU-1, Lung, PIK3CA WT): 4.65 µM
- Category (MDAMB231): Resistant (resistant (GI50>1.0 μM))
- GI50 (MDAMB231; Homo sapiens, MDA-MB-231, Breast, PIK3CA WT): 23.6 µM
- Category (SNU620): Resistant (resistant (GI50>1.0 μM))
- GI50 (SNU620; [1]): 3.14 µM
- Category (SNU601): Sensitive (sensitive (GI50<=1.0 μM))
- GI50 (SNU601; Homo sapiens, SNU-601, Stomach, PIK3CA MUT): 506 nM
- Category (SNU638): Resistant (resistant (GI50>1.0 μM))
- GI50 (SNU638; Homo sapiens, SNU-638, Stomach, PIK3CA WT): 8.22 µM
- Category (RKO): Resistant (resistant (GI50>1.0 μM))
- GI50 (RKO; Homo sapiens, Colon, PIK3CA MUT): 4.32 µM
- Category (A2058): Resistant (resistant (GI50>1.0 μM))
- GI50 (A2058; Homo sapiens, Skin, PIK3CA WT): 30 µM
- Category (T47D): Sensitive (sensitive (GI50<=1.0 μM))
- GI50 (T47D; Homo sapiens, Breast, PIK3CA MUT): 198 nM
- Category (HCCC9810): Resistant (resistant (GI50>1.0 μM))
- GI50 (HCCC9810; Homo sapiens, Bile duct, PIK3CA WT): 10 µM
- Category (SNU1): Resistant (resistant (GI50>1.0 μM))
- GI50 (SNU1; [1]): 15 µM
- Category (KATOIII): Resistant (resistant (GI50>1.0 μM))
- GI50 (KATOIII; Homo sapiens, KATO III, Stomach, PIK3CA WT): 9.15 µM
- Category (JJN3): Resistant (resistant (GI50>1.0 μM))
- GI50 (JJN3; Homo sapiens, JJN-3, Blood/lymph, PIK3CA WT): 30 µM
- Category (HCC1395): Resistant (resistant (GI50>1.0 μM))
- GI50 (HCC1395; Homo sapiens, Breast, PIK3CA WT): 21.8 µM
- Category (ASPC1): Resistant (resistant (GI50>1.0 μM))
- GI50 (ASPC1; [2]): 1740 nM
- Category (H322): Resistant (resistant (GI50>1.0 μM))
- GI50 (H322; Homo sapiens, NCI-H322, Lung, PIK3CA WT): 8.23 µM
- Category (SKCO1): Resistant (resistant (GI50>1.0 μM))
- GI50 (SKCO1; Homo sapiens, SK-CO-1, Colon, PIK3CA WT): 1130 nM
- Category (RPM18226): Resistant (resistant (GI50>1.0 μM))
- GI50 (RPM18226; Homo sapiens, Blood/lymph, PIK3CA WT): 30 µM
- Category (OCILY19): Resistant (resistant (GI50>1.0 μM))
- GI50 (OCILY19; Homo sapiens, OCI-LY19, Blood/lymph, PIK3CA WT): 30 µM
- Category (COLO205): Resistant (resistant (GI50>1.0 μM))
- GI50 (COLO205; Homo sapiens, COLO 205, Colon, PIK3CA WT): 8.93 µM
- Category (HARA): Resistant (resistant (GI50>1.0 μM))
- GI50 (HARA; Homo sapiens, Lung, PIK3CA WT): 1910 nM
- Category 977: Resistant (resistant (GI50>1.0 μM))
- GI50 977; [3]: 4.42 µM
- Category (HUH7): Resistant (resistant (GI50>1.0 μM))
- GI50 (HUH7; Homo sapiens, Huh-7, Liver, PIK3CA WT): 16 µM
- Category (TCCSUP): Sensitive (sensitive (GI50<=1.0 μM))
- GI50 (TCCSUP; Homo sapiens, TCC-SUP, Bladder, PIK3CA MUT): 724 nM
- Category (H522): Resistant (resistant (GI50>1.0 μM))
- GI50 (H522; Homo sapiens, NCI-H522, Lung, PIK3CA WT): 15.6 µM
- Category (DMS114): Resistant (resistant (GI50>1.0 μM))
- GI50 (DMS114; Homo sapiens, DMS-114, Lung, PIK3CA WT): 3.29 µM
- Category (SW1710): Resistant (resistant (GI50>1.0 μM))
- GI50 (SW1710; [3]): 5.34 µM
- Category (HPAFII): Resistant (resistant (GI50>1.0 μM))
- GI50 (HPAFII; Homo sapiens, HPAF-II, Pancreas, PIK3CA WT): 2630 nM
- Category (YAPC): Resistant (resistant (GI50>1.0 μM))
- GI50 (YAPC; [2]): 30 µM
- Category (HCA7): Resistant (resistant (GI50>1.0 μM))
- GI50 (HCA7; Homo sapiens, HCA-7, Colon, PIK3CA WT): 15.5 µM
- Category (HS766T): Resistant (resistant (GI50>1.0 μM))
- GI50 (HS766T; [2]): 3.47 µM
- Category (H526): Resistant (resistant (GI50>1.0 μM))
- GI50 (H526; Homo sapiens, NCI-H526, Lung, PIK3CA WT): 30 µM
- Category (CAPAN1): Resistant (resistant (GI50>1.0 μM))
- GI50 (CAPAN1; Homo sapiens, CAPAN-1, Pancreas, PIK3CA WT): 30 µM
- Category (KU1919): Resistant (resistant (GI50>1.0 μM))
- GI50 (KU1919; Homo sapiens, KU-19-19, Bladder, PIK3CA WT): 30 µM
- Category (OCUM1): Resistant (resistant (GI50>1.0 μM))
- GI50 (OCUM1; [1]): 2330 nM
- Category (HT29): Resistant (resistant (GI50>1.0 μM))
- GI50 (HT29; Homo sapiens, HT-29, Colon, PIK3CA MUT): 5.48 µM
- Category (MONOMAC6): Resistant (resistant (GI50>1.0 μM))
- GI50 (MONOMAC6; Homo sapiens, MONO-MAC-6, Blood/lymph, PIK3CA WT): 2620 nM
- Category (H226): Resistant (resistant (GI50>1.0 μM))
- GI50 (H226; Homo sapiens, NCI-H226, Lung, PIK3CA WT): 10.1 µM
- Category (H2126): Resistant (resistant (GI50>1.0 μM))
- GI50 (H2126; Homo sapiens, NCI-H2126, Lung, PIK3CA WT): 12.9 µM
- Category (H23): Resistant (resistant (GI50>1.0 μM))
- GI50 (H23; Homo sapiens, NCI-H23, Lung, PIK3CA WT): 12.3 µM
- Category (PANC0327): Resistant (resistant (GI50>1.0 μM))
- GI50 (PANC0327; Homo sapiens, PANC-03-27, Pancreas, PIK3CA WT): 8.03 µM
- Category (SCABER): Resistant (resistant (GI50>1.0 μM))
- GI50 (SCABER; [3]): 12.4 µM
- Category (LNCAPCLONEFGC): Resistant (resistant (GI50>1.0 μM))
- GI50 (LNCAPCLONEFGC; Homo sapiens, LNCaP-Clone-FGC, Prostate, PIK3CA WT): 3.01 µM
